“And” between values parts separate entries of the source, which are not always exact repeats. Equal entries are not always repeated. Where two headings read alike, the source gives them in different places.
Assays:
[1] = system: TMPRSS2-HiBiT-BEAS-2B cells
SARS-CoV-2 pseudovirus [2] = test: microbe, parasite or virus in culture; assay type: cell-based; settings: for IC50: Severe acute respiratory syndrome-related coronavirus, Caco-2, read-out: In vitro IC50 (viral entry)
[3] = human, cited from earlier work
in vitro = settings: human
SARS-CoV-2 pseudovirus [4] = assay type: cell-based
[5] = set-up: method as in Selleck L1300 library file; settings: ref Selleck L1300 library file, cited from earlier work
B-RafV600E = system: B-RafV600E; set-up: method as in selleckchem.com; settings: ref selleckchem.com, cited from earlier work
TMPRSS2 = TMPRSS2 (Homo sapiens, UniProt O15393); test: TMPRSS2 activity assay (Boc-Gln-Ala-Arg-MCA fluorescence); assay type: biochemical; set-up: purchased LSBio; settings: replicates
Protocol: Fluorescence (380-15 nm excitation/470-20 nm emission) of the samples was monitored over 4:45 h and the slope of the curves was calculated by linear regression analysis and used as output for TMPRSS2 activity.

Chain of TMPRSS2 (O15393 106-492): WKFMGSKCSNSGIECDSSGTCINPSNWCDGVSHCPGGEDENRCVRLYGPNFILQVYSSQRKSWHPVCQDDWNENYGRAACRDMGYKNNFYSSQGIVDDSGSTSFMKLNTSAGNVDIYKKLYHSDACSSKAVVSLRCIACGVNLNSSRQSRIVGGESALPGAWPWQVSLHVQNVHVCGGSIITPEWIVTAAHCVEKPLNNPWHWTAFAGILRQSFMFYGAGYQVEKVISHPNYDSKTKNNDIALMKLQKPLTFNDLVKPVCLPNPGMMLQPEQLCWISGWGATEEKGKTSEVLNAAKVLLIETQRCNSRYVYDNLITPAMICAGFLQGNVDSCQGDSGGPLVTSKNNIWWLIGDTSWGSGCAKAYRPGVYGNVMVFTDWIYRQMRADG

Compound: Verteporfin [reference compound]
- CC50 [1]: > 10 µM

Compound: COCCOC(=O)C1=C(C)NC(C)=C(C(=O)OC/C=C/c2ccccc2)C1c1cccc([N+](=O)[O-])c1 (stereo not drawn) [Cilnidipine]
- viral entry (SARS-CoV-2 pseudovirus [2]): effective in reducing viral entry
- IC50 (SARS-CoV-2 pseudovirus [2]): ~3 µM
- Cmax ([3]; 10 mg Oral (QD)): 18.1 nM
- CC50 (in vitro): > 10 µM

Compound: CC1(C)CCC(CN2CCN(c3ccc(C(=O)NS(=O)(=O)c4ccc(NCC5CCOCC5)c([N+](=O)[O-])c4)c(Oc4cnc5[nH]ccc5c4)c3)CC2)=C(c2ccc(Cl)cc2)C1 [Venetoclax]
- viral entry (SARS-CoV-2 pseudovirus [2]): effective in reducing viral entry
- IC50 (SARS-CoV-2 pseudovirus [2]): > 10 µM
- Cmax ([3]; 400 mg Oral (QD)): 1270 nM
- signal relative to Vehicle (FigS7 source data) (SARS-CoV-2 pseudovirus [4]): 0.618 and 0.6416 and 0.6544
- CC50 (in vitro): > 10 µM

Compound: CNC(=O)c1ccccc1Sc1ccc2c(/C=C/c3ccccn3)n[nH]c2c1 [Axitinib]
- DMSO (mM)Max Solubility [5]: 90.56 mM
- DMSO (mg/mL)Max Solubility [5]: 35.00 mg/mL
- water (mg/mL)Max Solubility ([5]; water): <1 mg/mL

Compound: C[C@H]1O[C@H](O[C@H]2[C@H](O)[C@@H](O)[C@@H](O[C@H]3[C@H](O)[C@@H](O)C(O)O[C@@H]3CO)O[C@@H]2CO)[C@H](O)[C@@H](O)[C@@H]1N[C@H]1C=C(CO)[C@@H](O)[C@H](O)[C@H]1O (stereo partly drawn) [Acarbose]
- DMSO (mM)Max Solubility [5]: 154.89 mM
- DMSO (mg/mL)Max Solubility [5]: 100.00 mg/mL
- water (mM)Max Solubility ([5]; water): 154.89 mM
- water (mg/mL)Max Solubility ([5]; water): 100.00 mg/mL

Compound: CCCS(=O)(=O)Nc1ccc(F)c(C(=O)c2c[nH]c3ncc(-c4ccc(Cl)cc4)cc23)c1F [Vemurafenib (PLX4032, RG7204), Vemurafenib]
- DMSO (mM)Max Solubility [5]: 197.99 mM
- DMSO (mg/mL)Max Solubility [5]: 97.00 mg/mL
- water (mg/mL)Max Solubility ([5]; water): <1 mg/mL
- IC50 (B-RafV600E; cell-free assay): 0.031 µM
- selectivity for B-RafV600E over wild-type B-Raf (B-RafV600E; enzymatic assays): 10 fold

Compound: Cc1nc(Nc2ncc(C(=O)Nc3c(C)cccc3Cl)s2)cc(N2CCN(CCO)CC2)n1 [Dasatinib]
- viral entry (SARS-CoV-2 pseudovirus [2]): effective in reducing viral entry
- IC50 (SARS-CoV-2 pseudovirus [2]): > 10 µM
- Cmax ([3]; 140 mg Oral (QD)): 307 nM
- signal relative to Vehicle (FigS7 source data) (SARS-CoV-2 pseudovirus [4]): 0.6399 and 0.7584 and 0.6593
- CC50 (in vitro): > 10 µM

Compound: Cc1nc(C(=O)NCC(=O)O)c(O)c2ccc(Oc3ccccc3)cc12 [Roxadustat (FG-4592), Roxadustat]
- DMSO (mM)Max Solubility [5]: 198.67 mM
- DMSO (mg/mL)Max Solubility [5]: 70.00 mg/mL
- water (mg/mL)Max Solubility ([5]; water): <1 mg/mL

Compound: COC(=O)Nc1nc2cc(C(=O)c3ccc(F)cc3)ccc2[nH]1 [Flubendazole]
- ATP Glo ([1]; conc 3): 0.991 and 1.045 and 1.023

Compound: Cc1coc2c1C(=O)C(=O)c1c-2ccc2c1CCCC2(C)C [Tanshinone IIA]
- ATP Glo ([1]; conc 0.01): 1.137 and 1.427 and 1.128

Compound: CN(C)C(=O)COC(=O)Cc1ccc(OC(=O)c2ccc(NC(=N)N)cc2)cc1 [Camostat]
- signal relative to Vehicle (FigS7 source data) (SARS-CoV-2 pseudovirus [4]): 0.7432 and 0.6624 and 0.6548
- TMPRSS2 activity (FigS9 source data) (TMPRSS2; 0.08 µM): -0.0086 and -0.0028 and 0.0044 and -0.0059
- TMPRSS2 activity (FigS9 source data) (TMPRSS2; 0.4 µM): -0.037 and -0.0342 and -0.033 and -0.0254
- TMPRSS2 activity (FigS9 source data) (TMPRSS2; 2 µM): -0.0401 and -0.0361 and -0.044 and -0.0525
